US20260242416A1, “ANTIMICROBIAL PEPTIDES” (priority 2023, published 2026)
Values after ≈ are worked out from the molar mass of the structure shown. “Also recorded” adds a separate entry of the source. Where two headings read alike, the source gives them in different places. Where a SMILES comes first, the peptide text is derived from it.

Columns and labels:
S. aureus ATCC 29213 = format: cell-based, Staphylococcus aureus; settings: for MIC (ug/mL) S. aureus: ATCC 29213
Outline: (§1)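 MIC taken as lowest peptide level showing no visible growth after 20-24 h at 37° C. Twofold series 128-0.5 μg/mL in Mueller-Hinton broth, polypropylene plates, final inoculum 2-8×10^5 cfu/mL, per CLSI with cationic-peptide adaptations.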

HEK293 cells = test: alamarBlue cell viability assay (cytotoxicity); format: cell-based, human; settings: concentrations up to 128 μg/mL
Method: (§2) The human embryonic kidney cell line HEK293 and the corresponding growth media and supplements were purchased from the ATCC. The cells were maintained in Eagle's Minimum Essential Medium (EMEM) supplemented with 10% fetal bovine serum (FBS) and 1% Penicillin-Streptomycin solution and grown in a 5% CO2 incubator at 37° C. […] Cells were incubated overnight to allow them to adhere. […] TX-100 was diluted to 2% in UltraPure deionized water and added as a positive control. Complete growth medium was added to the peptides and TX-100 containing wells. Spent growth medium of wells with adhered cells was replaced with the contents of wells containing serially diluted peptides or TX-100. Cells were incubated for four hours at 37° C. in 5% CO2 incubator. Growth medium containing peptides or TX-100 was replaced with fresh growth medium containing 10% (v/v) alamarBlue (Bio-Rad Laboratories, Hercules, CA, USA) and incubated for 20 h. Fluorescence was measured at excitation of 540 nm and emission of 590 nm in a Cytation 5 plate reader (Agilent BioTek, Winooski, VT, USA) and results recorded and analyzed with Gen5 software (Agilent BioTek, Winooski, VT, USA). The average fluorescence reads of TX-100 and growth media only wells were used to calculate 0% and 100% cell viability, respectively. The percentage of viable cells at each peptide concentration was determined by Formula 1: […]

E. coli ATCC 25922 = format: cell-based, Escherichia coli
Outline: as §1

[1] = system: Salmonella enterica serovar Enteritidis (human clinical isolate); format: cell-based; settings: serovar Enteritidis (human clinical isolate)
Outline: as §1

[2] = system: E. coli ATCC 25922, Salmonella Enteritidis, S. aureus ATCC 29213; test: Broth microdilution, panel result (at least one / all strains), Example 2; format: cell-based; parameters: key to inhibitory activity (asterisk): *Indicates inhibitory activity; settings: for inhibitory activity (asterisk): Table 14, against at least one of E. coli ATCC 25922, Salmonella Enteritidis, S. aureus ATCC 29213; for spectrum of antimicrobial activity: panel of E. coli, Salmonella Enteritidis, S. aureus, up to 128 μg/mL
Outline: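 CLSI broth microdilution adapted for cationic peptides, in MHB with a final inoculum of 2-8×10^5 cfu/mL in polypropylene plates. Peptides were serially diluted from 128 down to 0.5 μg/mL and incubated 20-24 h at 37° C. MIC is the lowest concentration with no visible growth.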

[3] = alamarBlue cell viability assay (cytotoxicity); format: cell-based, human; settings: human, HEK293 cells; for viability at 4 h, 128 µg/mL: at 128 μg/mL; for viability at 4 h, 64 µg/mL: at 64 μg/mL
Method: as §2

SMILES | MIC (ug/mL) S. aureus (S. aureus ATCC 29213) | cytotoxicity (HEK293 cells) | MIC (ug/mL) E. coli (E. coli ATCC 25922; ATCC 25922) | MIC against E. coli (E. coli ATCC 25922; ATCC 25922) | MIC (ug/mL) S. Enteritidis [1] | MIC against Salmonella Enteritidis [1] | inhibitory activity (asterisk) [2] | spectrum of antimicrobial activity [2] | viability at 4 h, 128 µg/mL [3] | MIC against S. aureus (S. aureus ATCC 29213) | viability at 4 h, 64 µg/mL [3] | MIC against E. coli (E. coli ATCC 25922)
CC(C)C[C@H](NC(=O)[C@H](CCCNC(=N)N)NC(=O)[C@@H]1CCCN1C(=O)[C@H](Cc1c[nH]cn1)NC(=O)[C@@H]1CCCN1C(=O)[C@@H]1CCCN1C(=O)[C@H](CCCNC(=N)N)NC(=O)[C@@H]1CCCN1C(=O)[C@@H]1CCCN1C(=O)[C@@H](NC(=O)[C@H](CCC(N)=O)NC(=O)[C@H](CCC(N)=O)NC(=O)[C@@H]1CCCN1C(=O)[C@H](CCCNC(=N)N)NC(=O)[C@@H]1CCCN1C(=O)[C@@H](N)CCCNC(=N)N)C(C)C)C(=O)N[C@@H](CCCNC(=N)N)C(=O)N[C@@H](CCCNC(=N)N)C(=O)O [PaVa1, RPRPQQVPPRPPHPRLRR] (H-RPRPQQVPPRPPHPRLRR-OH) | > 128 µg/mL | not to be toxic to HEK293 cells at any of the concentrations tested; also recorded: not toxic against either porcine erythrocytes or HEK293 cells | 2 to 4 µg/mL | 2 to 4 mg/L | 4 to 8 µg/mL | 4 to 8 mg/L |  |  |  |  |  | 
CC[C@H](C)[C@H](NC(=O)[C@H](CCCCN)NC(=O)CNC(=O)[C@H](CC(C)C)NC(=O)[C@H](CC(C)C)NC(=O)CN)C(=O)N[C@@H](CC(C)C)C(=O)NCC(=O)N[C@H](C(=O)NCC(=O)N[C@@H](CCCCN)C(=O)N[C@@H](CCCCN)C(=O)N[C@H](C(=O)N[C@@H](CC(C)C)C(=O)N[C@@H](CS)C(=O)NCC(=O)N[C@H](C(=O)N[C@@H](CO)C(=O)NCC(=O)N[C@@H](CC(C)C)C(=O)N[C@@H](CS)C(=O)O)C(C)C)C(C)C)C(C)C [PeNi9] (H-GLLGKILGVGKKVLCGVSGLC-OH; N-terminus and C-terminus assumed) | 4 to 8 µg/mL | low or no cytotoxicity at lower concentrations; also recorded: high levels of cytotoxicity at concentrations higher than their MICs | 2 to 4 µg/mL |  | 8 to 16 µg/mL |  | 32.* GLLGKILGVGKKVLCGVSGLC | active against all three bacteria | 0% |  |  | 
CC(C)C[C@H](NC(=O)CNC(=O)[C@@H](NC(=O)[C@@H](NC(=O)CNC(=O)[C@H](CS)NC(=O)[C@H](CC(C)C)NC(=O)[C@@H](NC(=O)[C@H](CCCCN)NC(=O)[C@H](CCCCN)NC(=O)CNC(=O)[C@@H](NC(=O)CNC(=O)[C@H](CC(C)C)NC(=O)[C@@H](NC(=O)[C@H](CCCCN)NC(=O)CNC(=O)[C@H](CC(C)C)NC(=O)[C@H](CC(C)C)NC(=O)CN)C(C)C)C(C)C)C(C)C)C(C)C)[C@@H](C)O)C(=O)N[C@@H](CS)C(=O)O [PeNi1] (H-GLLGKVLGVGKKVLCGVTGLC-OH; N-terminus and C-terminus assumed) |  | high levels of cytotoxicity at concentrations higher than their MICs |  |  | 8 to 16 µg/mL |  | 363.* GLLGKVLGVGKKVLCGVTGLC | active against all three bacteria | ~0% | 4 mg/L (≈ 1.99 µM) | < 75% | 4 mg/L (≈ 1.99 µM)
CC[C@H](C)[C@H](NC(=O)CNC(=O)[C@H](CCCNC(=N)N)NC(=O)[C@H](CC(C)C)NC(=O)[C@H](CC(C)C)NC(=O)CN)C(=O)N[C@@H](CC(C)C)C(=O)NCC(=O)N[C@@H](C)C(=O)NCC(=O)N[C@@H](CCCCN)C(=O)N[C@@H](CCCCN)C(=O)N[C@H](C(=O)N[C@H](C(=O)N[C@@H](CS)C(=O)NCC(=O)N[C@@H](CC(C)C)C(=O)N[C@@H](CO)C(=O)NCC(=O)N[C@@H](CC(C)C)C(=O)N[C@@H](CS)C(=O)O)C(C)C)[C@@H](C)CC [OdMa2] (H-GLLRGILGAGKKIVCGLSGLC-OH; N-terminus and C-terminus assumed) | 4 to 8 µg/mL | high levels of cytotoxicity at concentrations higher than their MICs |  |  | 8 to 16 µg/mL |  | 64.* GLLRGILGAGKKIVCGLSGLC | active against all three bacteria | ~0% |  | < 75% | 4 mg/L (≈ 1.97 µM)
CC[C@H](C)[C@H](NC(=O)CN)C(=O)N[C@@H](Cc1ccccc1)C(=O)NCC(=O)NCC(=O)N[C@@H](Cc1c[nH]cn1)C(=O)N[C@@H](CC(C)C)C(=O)N[C@@H](CCCCN)C(=O)N[C@H](C(=O)NCC(=O)N[C@@H](CCCCN)C(=O)N[C@@H](CCCCN)C(=O)N[C@H](C(=O)N[C@@H](C)C(=O)N[C@@H](CS)C(=O)NCC(=O)N[C@@H](CC(C)C)C(=O)N[C@@H](CO)C(=O)NCC(=O)N[C@@H](CC(C)C)C(=O)N[C@@H](CS)C(=O)O)[C@@H](C)CC)C(C)C [OdTo2] (H-GIFGGHLKVGKKIACGLSGLC-OH; N-terminus and C-terminus assumed) | > 128 µg/mL |  | 32 µg/mL (≈ 15.5 µM) |  | > 128 µg/mL |  | 139.* GIFGGHLKVGKKIACGLSGLC |  |  |  |  | 
CC[C@H](C)[C@H](NC(=O)CN)C(=O)N[C@@H](Cc1ccccc1)C(=O)NCC(=O)NCC(=O)N[C@@H](CC(C)C)C(=O)N[C@@H](CC(C)C)C(=O)N[C@@H](CCCCN)C(=O)N[C@@H](CCC(=O)O)C(=O)NCC(=O)N[C@@H](CCCCN)C(=O)N[C@@H](CCCCN)C(=O)N[C@H](C(=O)N[C@@H](C)C(=O)N[C@@H](CS)C(=O)NCC(=O)N[C@@H](CC(C)C)C(=O)N[C@@H](CO)C(=O)NCC(=O)N[C@@H](CC(C)C)C(=O)N[C@@H](CS)C(=O)O)[C@@H](C)CC [OdTo3] (H-GIFGGLLKEGKKIACGLSGLC-OH; N-terminus and C-terminus assumed) | > 128 µg/mL |  | 32 µg/mL (≈ 15.5 µM) |  | > 128 µg/mL |  | 141.* GIFGGLLKEGKKIACGLSGLC |  |  |  |  | 
CC[C@H](C)[C@H](NC(=O)CN)C(=O)N[C@@H](Cc1ccccc1)C(=O)N[C@@H](CO)C(=O)N[C@@H](CC(C)C)C(=O)N[C@H](C(=O)N[C@@H](CCCCN)C(=O)NCC(=O)N[C@@H](C)C(=O)N[C@@H](C)C(=O)N[C@@H](CCCCN)C(=O)N[C@H](C(=O)N[C@H](C(=O)N[C@@H](C)C(=O)N[C@@H](CCCCN)C(=O)NCC(=O)N[C@@H](CC(C)C)C(=O)NCC(=O)O)C(C)C)C(C)C)[C@@H](C)CC [PeNi3, GIFSLIKGAAKVVAKGLG] (H-GIFSLIKGAAKVVAKGLG-OH; N-terminus and C-terminus assumed) | 64 to 128 µg/mL |  | 16 to 32 µg/mL |  | 64 to 128 µg/mL |  | 1096.* GIFSLIKGAAKVVAKGLG |  |  |  |  | 
CC[C@H](C)[C@H](NC(=O)CN)C(=O)N[C@@H](Cc1ccccc1)C(=O)N[C@@H](CO)C(=O)N[C@@H](CC(C)C)C(=O)N[C@H](C(=O)N[C@@H](CCCCN)C(=O)NCC(=O)N[C@@H](C)C(=O)N[C@@H](C)C(=O)N[C@@H](CCCCN)C(=O)N[C@H](C(=O)N[C@H](C(=O)N[C@@H](C)C(=O)N[C@@H](CCCCN)C(=O)NCC(=O)N[C@@H](CC(C)C)C(=O)NCC(=O)N[C@@H](CCCCN)C(=O)O)C(C)C)C(C)C)[C@@H](C)CC [RaOm3, GIFSLIKGAAKVVAKGLGK] (H-GIFSLIKGAAKVVAKGLGK-OH; N-terminus and C-terminus assumed) | 64 µg/mL (≈ 34.5 µM) |  | 8 to 16 µg/mL |  | 32 to 64 µg/mL |  | 1099.* GIFSLIKGAAKVVAKGLGK |  |  |  |  | 
